Key:
SW-620 = test: NCI multiple cell line test (SRB); assay type: cell-based, human; conditions: SW-620 (Colon Cancer), 48 h
SF-295 = test: NCI multiple cell line test (SRB); assay type: cell-based, human; conditions: SF-295 (CNS Cancer), 48 h
OVCAR-8 = test: NCI multiple cell line test (SRB); assay type: cell-based, human; conditions: OVCAR-8 (Ovarian Cancer), 48 h
NCI-H226 = test: NCI multiple cell line test (SRB); assay type: cell-based, human; conditions: NCI-H226 (Non-Small Cell Lung Cancer), 48 h
MOLT-4 = test: NCI multiple cell line test (SRB); assay type: cell-based, human; conditions: MOLT-4 (Leukemia), 48 h
HS 578T = test: NCI multiple cell line test (SRB); assay type: cell-based, human; conditions: HS 578T (Breast Cancer), 48 h
T-47D = test: NCI multiple cell line test (SRB); assay type: cell-based, human; conditions: T-47D (Breast Cancer), 48 h
HCT-15 = test: NCI multiple cell line test (SRB); assay type: cell-based, human; conditions: HCT-15 (Colon Cancer), 48 h
HT29 = test: NCI multiple cell line test (SRB); assay type: cell-based, human; conditions: HT29 (Colon Cancer), 48 h
NCI-H460 = test: NCI multiple cell line test (SRB); assay type: cell-based, human
SK-MEL-5 = test: NCI multiple cell line test (SRB); assay type: cell-based, human; conditions: SK-MEL-5 (Melanoma), 48 h
A549 cells = test: Growth response, MTT dye conversion assay; assay type: cell-based, human; conditions: low doses (FIG. 13 as printed)
Lewis murine lung cells = test: Growth response, MTT dye conversion assay; assay type: cell-based; conditions: FIG. 9; mouse lung cell line
SK-MEL-28 = test: NCI multiple cell line test (SRB); assay type: cell-based, human; conditions: SK-MEL-28 (Melanoma), 48 h
OVCAR-5 = test: NCI multiple cell line test (SRB); assay type: cell-based, human; conditions: OVCAR-5 (Ovarian Cancer), 48 h
H226 cells = test: Growth response, MTT dye conversion assay; assay type: cell-based, human
COLO 205 = test: NCI multiple cell line test (SRB); assay type: cell-based, human; conditions: COLO 205 (Colon Cancer), 48 h
[1] = Homo sapiens, read-out: −log10GI50 (converted)
[2] = NCI-H460 (Non-Small Cell Lung Cancer), 48 h

SMILES: COC(=O)C1=C(C(=O)OC)SC2(S1)C(C(=O)OC)=C(C(=O)OC)SC1=C2c2cccc(OC)c2N(C(=O)CN2C(=O)CCC2=O)C1(C)C [MT477]
- IC50 (SW-620; [1]): 1660 nM
- −log10LC50 (SW-620): * (effect not reached at maximum dose of 0.05 millimolar)
- −log10TGI (SW-620): * (effect not reached at maximum dose of 0.05 millimolar)
- IC50 (SF-295; [1]): 9550 nM
- −log10LC50 (SF-295): * (effect not reached at maximum dose of 0.05 millimolar)
- −log10TGI (SF-295): 4.56 molar
- IC50 (OVCAR-8; [1]): 6920 nM
- −log10LC50 (OVCAR-8): 4.37 molar
- −log10TGI (OVCAR-8): 4.77 molar
- IC50 (NCI-H226; [1]): 7080 nM
- −log10LC50 (NCI-H226): * (effect not reached at maximum dose of 0.05 millimolar)
- −log10TGI (NCI-H226): 4.72 molar
- IC50 (MOLT-4; [1]): 1020 nM
- −log10LC50 (MOLT-4): 4.68 molar
- −log10TGI (MOLT-4): 5.64 molar
- −log10LC50 (HS 578T): * (effect not reached at maximum dose of 0.05 millimolar)
- −log10TGI (HS 578T): 4.68 molar
- IC50 (HS 578T; [1]): 6610 nM
- IC50 (T-47D; Homo sapiens, T47D, read-out: −log10GI50 (converted)): 1510 nM
- −log10LC50 (T-47D): * (effect not reached at maximum dose of 0.05 millimolar)
- −log10TGI (T-47D): 5.40 molar
- −log10LC50 (HCT-15): 4.69 molar
- −log10TGI (HCT-15): 5.27 molar
- IC50 (HCT-15; [1]): 1480 nM
- −log10LC50 (HT29): * (effect not reached at maximum dose of 0.05 millimolar)
- −log10TGI (HT29): 4.65 molar
- IC50 (HT29; Homo sapiens, HT-29, read-out: −log10GI50 (converted)): 1700 nM
- IC50 (NCI-H460; Homo sapiens, NCI-H460 (Non-Small Cell Lung Cancer), 48 h, read-out: −log10GI50 (converted)): 1740 nM
- GI50 (NCI-H460; Homo sapiens, NCI-H460, MT477 ACTUAL): 1740 nM
- Activity against lung cancer NCI-H460 (NCI-H460; MT477 ACTUAL): Yes
- −log10LC50 (NCI-H460; [2]): * (effect not reached at maximum dose of 0.05 millimolar)
- −log10TGI (NCI-H460; [2]): * (effect not reached at maximum dose of 0.05 millimolar)
- IC50 (SK-MEL-5; [1]): 6170 nM
- −log10LC50 (SK-MEL-5): * (effect not reached at maximum dose of 0.05 millimolar)
- −log10TGI (SK-MEL-5): 4.51 molar
- growth response at low concentrations (A549 cells): effective even at very low doses, including micromolar dosages
- growth response (Lewis murine lung cells): effective in human and mouse cell lung lines
- IC50 (SK-MEL-28; [1]): 1550 nM
- −log10LC50 (SK-MEL-28): * (effect not reached at maximum dose of 0.05 millimolar)
- −log10TGI (SK-MEL-28): 5.27 molar
- IC50 (OVCAR-5; [1]): 8910 nM
- −log10LC50 (OVCAR-5): 4.53 molar
- −log10TGI (OVCAR-5): 4.79 molar
- growth response (H226 cells; FIG. 5, 48 hours, compared with cisplatin): more effective than cisplatin
- growth response at low concentrations (H226 cells; H226 cells, low doses (FIG. 11 as printed)): effective even at very low doses, including micromolar dosages
- −log10LC50 (COLO 205): * (effect not reached at maximum dose of 0.05 millimolar)
- −log10TGI (COLO 205): 5.19 molar
- IC50 (COLO 205; [1]): 1660 nM
